According to patent US20230330254A1 (Regeneron Pharmaceuticals, Inc., priority 2022, published 2023):
Like-named read-outs stand apart in the source and are kept apart here. Where a SMILES comes first, the peptide text is derived from it. [ ]: non-standard residue; d: D form. The star is where a group is joined. Bip(2'-Et,4'-O(CH2)4NH2) = CCc1cc(OCCCCN)ccc1-c1ccc(C[C@H](N)C(=O)O)cc1; Nva(5-(3,5-Me2Ph)) = Cc1cc(C)cc(CCC[C@H](N)C(=O)O)c1; Ala(1H-tetrazol-5-yl) = N[C@@H](Cc1nnn[nH]1)C(=O)O; αMePhe(2-F) = C[C@](N)(Cc1ccccc1F)C(=O)O; Desaminohistidyl = O=C(CCc1c[nH]cn1)*; X1 = O=C(CCCCCc1cnc[nH]1)*; X4 = CC(C)(C(=O)O)C(=O)*

Key:
HEK293/CRE-Luc cells [1] = assay: Luciferase reporter assay, HEK293/CRE-Luc cells without GLP1R (Example 17); format: cell-based, human; details: HEK293/CRE-Luc cells without hGLP1R, payloads and linker-payloads; for EC50: read-out: EC50
In short: (§1)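 HEK293 cells carrying a CRE-driven firefly luciferase reporter were exposed to 3-fold serial dilutions of payloads or linker-payloads (12 points, 0.2% DMSO final) for 4–6 h, then luminescence was read. EC50 came from a four-parameter logistic fit; S/N is top RLU over untreated wells, and relative potency and S/N are referenced to M2361.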

human GLP1R [2] = target: T1, human GLP1R (Homo sapiens, UniProt P43220); assay: Luciferase reporter assay, HEK293/CRE-Luc/hGLP1R (Example 17); format: cell-based; set-up: engineered to express full-length human GLP1R, cynomolgus GLP1R; expressed in transfected cells; host or cells: HEK293/CRE-Luc; details: HEK293/CRE-Luc/hGLP1R; for S/N: highest RLU / RLU of untreated wells; for EC50: payloads and linker-payloads, experiments A-E, M2361 repeated in each, read-out: EC50; for Relative Potency (% M2361 EC50) / Relative Signal:Noise (% M2361): relative to M2361 of the same experiment
In short: as §1

human GLP1R [3] = target: T1, human GLP1R; assay: Luciferase reporter assay, HEK293/CRE-Luc/hGLP1R cells (Example 11); format: cell-based; set-up: engineered to express full-length human GLP1R, cynomolgus GLP1R; expressed in transfected cells; host or cells: HEK293/CRE-Luc; details: Table 11; Experiment A
From the text: (§2) To test the activity of GLP1R agonist payloads, GLP1R agonist linker-payloads (LPs), and anti-GLP1R antibody tethered drug conjugates (ATDCs) of the disclosure, a cell-based cAMP responsive luciferase reporter assay was developed. To generate the assay cell line, the firefly luciferase gene was placed under the control of a cAMP response element (CRE) located upstream of a minimal promoter and transfected into HEK293 cells and referred to herein as HEK293/CRE-Luc cells.
(§3) Three-fold serial dilutions of free payloads or LPs were prepared in 100% DMSO, transferred to fresh assay media, and added to the cells at a final constant DMSO concentration of 0.2%. The last well in the plate served as a blank control containing only the assay media and 0.2% DMSO (untreated well) and was plotted as a continuation of the 3-fold serial dilution. Four to six hours later, luciferase activity was determined after the addition of One-Glo™ reagent (Promega, Cat #E6130) to each well. Relative light units (RLUs) were measured on an Envision luminometer (PerkinElmer) and EC50 values were determined using a four-parameter logistic equation over a 12-point dose response curve (GraphPad Prism). The signal to noise (S/N) was determined by taking the ratio of the highest RLU on the dose response curve to the RLU in the untreated wells.
GLP1R agonist linker payloads were conjugated to anti-hGLP1R antibodies via N-terminal heavy or light chain Q tags. Several resulting anti-GLP1R antibody tethered drug conjugates (ATDCs) were tested for activity in the HEK293/CRE-Luc/hGLP1R reporter assay as described above for the free GLP1R payload and linker-payload agonists.

human GLP1R [4] = target: T1, human GLP1R; assay: Human GLP1R cAMP accumulation assay; format: cell-based; set-up: HEK293 cells over-expressing full length human GLP-1R were utilized; expressed in transfected cells; host or cells: HEK293 (HEK293/hGLP1R); details: HEK293/hGLP1R cells; Table 4; read-out: cAMP EC50
In short: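 cAMP accumulation measured after 30 min at 23° C, with 500 μM IBMX in HEPES-buffered HBSS plus 0.1% BSA, in HEK293 cells expressing full-length hGLP-1R. Levels read by D2-cAMP/antibody immunoassay via standard curve, scaled between low and high controls. EC50 fitted four-parameter over a 10-point curve.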

[5] = Plasma stability of payloads and linker-payloads, human plasma; format: in vitro ADME; details: plasma, 2 μM, 37° C., read-out: Human plasma stability assay T½ (converted)
Experimental: The plasma stability of payloads and linker payloads of the disclosure were measured. For the assay, pooled frozen plasma (human, mouse or monkey) was thawed in cold water or a 37° C. water bath prior to experiment. Plasma was centrifuged at 4000 rpm for 5 min if any clots were observed, they were subsequently removed. If required, the pH was adjusted to 7.4±0.1. For the preparation of compounds and positive controls, a 1 mM intermediate solution was prepared by diluting 10 μL of their stock solution with 90 μL DMSO; a 1 mM intermediate solution of the positive control (Propantheline) was prepared by diluting 10 μL of its stock solution with 90 μL ultrapure water. […] 98 μL of plasma was spiked with 2 μL of dosing solution (100 μM) to achieve the final concentration of 2 μM in duplicate. Samples were then incubated at 37° C. in a water bath. […] At each time point, 400 μL of stop solution (200 ng/mL tolbutamide plus 200 ng/mL labetalol in 50% ACN/MeOH) was added to precipitate protein and mixed thoroughly. Sample plates were then centrifuged at 4,000 rpm for 10 min. An aliquot of supernatant (50 μL) was transferred from each well and mixed with 100 μL ultrapure water. The samples were then shaken at 800 rpm for approximately 10 min before submitting for LC-MS/MS analysis.

HEK293/CRE-Luc cells [6] = assay: Luciferase reporter assay, HEK293/CRE-Luc cells without hGLP1R (Example 11); format: cell-based, human; details: Table 11; Experiment A; no hGLP1R expression
From the text: as §2, §3

[7] = Plasma stability of payloads (t½)
[8] = pH 7.4, tested time A (1 day per footnote)

T1 sequence (P43220 24-463): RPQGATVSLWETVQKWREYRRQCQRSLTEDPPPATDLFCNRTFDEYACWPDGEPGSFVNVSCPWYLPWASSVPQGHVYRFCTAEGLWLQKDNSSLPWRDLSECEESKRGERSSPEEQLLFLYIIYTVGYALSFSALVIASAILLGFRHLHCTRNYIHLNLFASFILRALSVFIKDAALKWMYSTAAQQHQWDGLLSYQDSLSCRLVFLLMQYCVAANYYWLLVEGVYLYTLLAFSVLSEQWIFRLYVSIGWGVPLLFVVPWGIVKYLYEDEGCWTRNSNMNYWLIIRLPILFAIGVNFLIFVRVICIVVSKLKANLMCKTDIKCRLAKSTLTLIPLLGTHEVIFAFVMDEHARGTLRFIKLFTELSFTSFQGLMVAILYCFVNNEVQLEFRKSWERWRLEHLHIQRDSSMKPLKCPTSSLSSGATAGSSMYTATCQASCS

Compound | S/N (HEK293/CRE-Luc cells [1]) | EC50 (HEK293/CRE-Luc cells [1]) [nM] | S/N (human GLP1R [2]) | EC50 (human GLP1R [2]) [nM] | Relative Potency (% M2361 EC50) (human GLP1R [2]) [%] | Relative Signal:Noise (% M2361) (human GLP1R [2]) [%] | EC50 (human GLP1R [3]) [nM] | HEK293/CRE-LUC/hGLP1R Relative Potency (% P8 EC50) (human GLP1R [3]) [%] | HEK293/CRE-LUC/hGLP1R S/N (human GLP1R [3]) | EC50 (human GLP1R [4]) [nM] | half-life at 2 µM [5, 8] [h] | EC50 (HEK293/CRE-Luc cells [6]) [nM] | HEK293/CRE-LUC S/N (HEK293/CRE-Luc cells [6]) | Plasma stability t½ [7] [h] | half-life at 2 µM ([5]; pH 7.4, tested time C (3 days)) [h]
CCc1cc(OCCCCN)ccc1-c1ccc(C[C@H](NC(=O)[C@H](CC(=O)O)NC(=O)[C@H](CO)NC(=O)[C@@H](NC(=O)[C@](C)(Cc2ccccc2F)NC(=O)[C@@H](NC(=O)CNC(=O)[C@H](Cc2nn[nH]n2)NC(=O)CCCCCc2cnc[nH]2)[C@@H](C)O)[C@@H](C)O)C(=O)N[C@@H](CCCc2cc(C)cc(C)c2)C(N)=O)cc1 [P11] (X1-[Ala(1H-tetrazol-5-yl)]GT[αMePhe(2-F)]TSD[Bip(2'-Et,4'-O(CH2)4NH2)][Nva(5-(3,5-Me2Ph))]-NH2) | 1.1 | > 200 | 54.8 | 0.685 | 0.8 | 83.4 | 0.685 | 0.8 | 54.8 | 1.03 | > 57.8 | > 200 | 1.1 | >57.8 | –
CCc1cc(OCCCCN)ccc1-c1ccc(C[C@H](NC(=O)[C@H](CC(=O)O)NC(=O)[C@H](CO)NC(=O)[C@@H](NC(=O)[C@](C)(Cc2ccccc2F)NC(=O)[C@@H](NC(=O)CNC(=O)[C@H](Cc2nn[nH]n2)NC(=O)C(C)(C)C(=O)O)[C@@H](C)O)[C@@H](C)O)C(=O)N[C@@H](CCCc2cc(C)cc(C)c2)C(N)=O)cc1 [P3] (X4-[Ala(1H-tetrazol-5-yl)]GT[αMePhe(2-F)]TSD[Bip(2'-Et,4'-O(CH2)4NH2)][Nva(5-(3,5-Me2Ph))]-NH2) | 1.2 | > 200 | 46.3 | 1.95 | 0.3 | 70.3 | 1.95 | 0.3 | 46.3 | 1.43 | > 57.8 | > 200 | 1.2 | >57.8 | –
CCc1cc(OCCCCN)ccc1-c1ccc(C[C@H](NC(=O)[C@H](CC(=O)O)NC(=O)[C@H](CO)NC(=O)[C@@H](NC(=O)[C@](C)(Cc2ccccc2F)NC(=O)[C@@H](NC(=O)CNC(=O)[C@H](CCC(N)=O)NC(=O)C(C)(C)C(=O)NCCc2cnc[nH]2)[C@@H](C)O)[C@@H](C)O)C(=O)N[C@@H](CCCc2cc(C)cc(C)c2)C(N)=O)cc1 [P21] | 1.3 | > 200 | 58.8 | 0.738 | 0.7 | 89.5 | 0.738 | 0.7 | 58.8 | 0.427 | – | > 200 | 1.3 | >57.8 | > 173
CCc1cc(OCCCCN)ccc1-c1ccc(C[C@H](NC(=O)[C@H](CC(=O)O)NC(=O)[C@H](CO)NC(=O)[C@@H](NC(=O)[C@](C)(Cc2ccccc2F)NC(=O)[C@@H](NC(=O)CNC(=O)[C@H](Cc2nn[nH]n2)NC(=O)CNC(=O)CCc2c[nH]cn2)[C@@H](C)O)[C@@H](C)O)C(=O)N[C@@H](CCCc2cc(C)cc(C)c2)C(N)=O)cc1 [P12] (Desaminohistidyl-G[Ala(1H-tetrazol-5-yl)]GT[αMePhe(2-F)]TSD[Bip(2'-Et,4'-O(CH2)4NH2)][Nva(5-(3,5-Me2Ph))]-NH2) | – | – | – | 0.0114 | – | – | 0.0114 | – | – | 0.039 | > 57.8 | – | – | >57.8 | –
